Publication PMC8123306, “Identification of Novel Inhibitors of Escherichia coli DNA Ligase (LigA)” (Molecules, 2021)
Like-named read-outs stand apart in the source and are kept apart here.

Target: T1, EC-LigA (Escherichia coli DNA ligase LigA) (Escherichia coli, UniProt P15042)
T1 construct: purchased NEB
Assay: in vitro ligase assay (nicked DNA substrate, denaturing PAGE)
Assay type: biochemical
Settings: for inhibition of EC-LigA (result in words): concentrations up to 3333 µM; for extent of inhibition reached (complete or partial): highest concentration tested 3333 µM; for extent of ligation in the presence of small molecule: at all small molecule concentrations tested (up to 3333 µM), about 50% ligation without small molecule
Experimental: A 50 bp nicked DNA substrate was designed and prepared by annealing a 5′ hexachlorofluorescein (HEX) labelled, 3′ hydroxyl 20 nt single stranded oligonucleotide (20Top) and an unlabelled, 5′ phosphate 30 nt single stranded oligonucleotide (30Top) to a complementary unlabelled 50 nt single stranded oligonucleotide (50Bot) (Figure 4A). Incubation of this nicked DNA substrate with EC-LigA in the presence of NAD^+ cofactor should lead to phosphodiester bond formation between the 3′ hydroxyl of 20Top and the 5′ phosphate of 30Top to produce a 50 bp double stranded DNA product. The ligation reaction can be evaluated by resolving the 50 nt 5′ HEX labelled single stranded DNA and the 20 nt 5′ HEX labelled 20Top single stranded DNA by denaturing polyacrylamide gel electrophoresis (PAGE). The inhibitory activity of small molecules on EC-LigA activity can then be assessed by comparing the extent of ligation (the percentage of 50 nt 5′ HEX labelled single stranded DNA produced) in the absence of small molecule to the extent of ligation in the presence of small molecule. Small molecule inhibitors of EC-LigA will reduce the percentage of 50 nt 5′ HEX labelled single stranded DNA produced.
Figure 4 In vitro screening of candidate EC-LigA small molecule inhibitors. (A) A schematic of the in vitro ligation assay. A 50 bp nicked DNA substrate was prepared by annealing a 5′ hexachlorofluorescein (HEX) labelled, 3′ hydroxyl 20 nt single stranded oligonucleotide (20Top, blue) and an unlabelled, 5′ phosphate 30 nt single stranded oligonucleotide (30Top) to a complementary unlabelled 50 nt single stranded oligonucleotide (50Bot). Subsequent ligation of 20Top and 30Top, by EC-LigA produced a 50 bp double stranded DNA product comprising 5′ HEX labelled 50 nt DNA (50Top, green) and the complementary unlabelled 50 nt DNA 50Bot. (B) Representative 10% (w/v) denaturing PAGE of in vitro ligase assays performed with 120 nM nicked DNA substrate, 30 nM EC-LigA and 26 µM NAD^+ in reaction buffer (30 mM Tris HCl, pH 8.0, 4 mM MgCl2, 1 mM DTT, and 50 µg/mL BSA) in the presence of increasing concentrations of geneticin (0–3333 µM) or chlorhexidine (0–3333 µM) at room temperature for 5 min. Blue and green triangles mark the HEX labelled 20Top (substrate) and 50Top (product) DNA species, respectively. Gels were quantitated using ImageJ and the mean percentage 50Top DNA product was plotted against small molecule concentration. Error bars represent the standard error of the mean for a minimum of two experimental repeats. […] (D) As for (B) but for increasing concentrations of 5-azacytidine (0–3333 µM) or imidazo[1,2-a]pyridine-7-C (0–3333 µM). (E) As for (B) but for increasing concentrations of bestatin (0–3333 µM) or 2-(aminomethyl)imidazole (0–3333 µM).
Quenched reactions were heat-denatured at 100°C for 3 min and placed on ice. Reaction products were resolved by 10% (w/v) denaturing PAGE (10% (w/v) polyacrylamide gels containing 20% formamide and 7 M urea). Inclusion of formamide in the polyacrylamide gels aided maintenance of single-stranded species during electrophoresis. Gels were visualised using a fluorescence-imager (Fuji FLA-5000) using an excitation wavelength of 532 nm. Digitised images were quantitated using ImageJ software (NIH) and the percentage of 20Top (substrate) and 50Top (product) in each lane was calculated. Data were fit to a three-parameter IC50 inhibition function: y=Ymax/1+(x/IC50)^n
In this equation, y is the percentage of 50Top (product) at small molecule inhibitor concentration x; Ymax is the theoretical maximal percentage of 50Top (product) that can be formed, IC50 is the concentration of small molecule inhibitor at half Ymax, and n is the Hill slope factor.

[1] = 120 nM nicked DNA, 30 nM EC-LigA, 26 µM NAD+, room temperature, 5 min, three-parameter fit, read-out: IC50

T1 sequence (P15042 whole entry): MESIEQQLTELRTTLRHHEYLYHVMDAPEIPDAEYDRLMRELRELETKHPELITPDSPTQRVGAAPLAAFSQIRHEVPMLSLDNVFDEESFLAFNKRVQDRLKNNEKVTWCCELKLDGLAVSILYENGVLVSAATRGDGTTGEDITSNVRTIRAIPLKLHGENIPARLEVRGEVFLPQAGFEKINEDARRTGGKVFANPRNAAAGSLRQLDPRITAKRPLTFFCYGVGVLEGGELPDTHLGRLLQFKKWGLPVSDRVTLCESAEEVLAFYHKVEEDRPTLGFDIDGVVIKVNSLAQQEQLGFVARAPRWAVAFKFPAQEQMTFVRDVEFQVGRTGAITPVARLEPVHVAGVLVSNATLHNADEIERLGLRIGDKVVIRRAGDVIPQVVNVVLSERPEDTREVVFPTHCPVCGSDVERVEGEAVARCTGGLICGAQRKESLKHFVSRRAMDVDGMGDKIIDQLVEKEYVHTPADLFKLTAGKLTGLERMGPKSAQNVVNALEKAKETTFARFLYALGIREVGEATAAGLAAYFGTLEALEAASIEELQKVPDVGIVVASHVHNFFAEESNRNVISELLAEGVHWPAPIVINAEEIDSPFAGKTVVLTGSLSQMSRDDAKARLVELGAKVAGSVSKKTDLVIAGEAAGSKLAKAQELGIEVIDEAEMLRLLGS

Row | SMILES | IC50 [1] [µM] | inhibition of EC-LigA (result in words) | extent of inhibition reached (complete or partial) | IC50 (apparent IC50, read-out: IC50) [µM] | extent of ligation in the presence of small molecule | IC50 (IC50, 120 nM nicked DNA, 30 nM EC-LigA, 26 µM NAD+, room temperature, 5 min, three-parameter fit) [µM] | IC50 (IC50, as stated in the text, apparent IC50) [µM]
1 | [H]/N=C(\N/C(=N/[H])NCCCCCCNC(=N)NC(=N)Nc1ccc(Cl)cc1)Nc1ccc(Cl)cc1 [Chlorhexidine, chlorhexidine, reference compound] | 11 | inhibited the ligation reaction in a dose-dependent manner | Complete inhibition of ligation was observed |  |  |  | 
2 | NCc1ncc[nH]1 [2-(aminomethyl)imidazole] | 872 ± 248 | inhibited the ligation reaction in a dose-dependent manner | inhibition was only partial | 870 |  |  | 
3 | O=C(NCNC(=O)NC1C(=O)NC(=O)N1CO)NC1C(=O)NC(=O)N1CO (centres unmarked) [Imidazolidinyl urea, imidazolidinyl urea] | 38.5 | inhibited the ligation reaction in a dose-dependent manner | Complete inhibition of ligation was observed |  |  |  | 
4 | Nc1ncn([C@@H]2O[C@H](CO)[C@@H](O)[C@H]2O)c(=O)n1 [5-azacytidine, reference compound] |  | do not inhibit EC-LigA |  |  | approximately 50% |  | 
5 | N[C@@H](CCC(=O)N[C@@H](CS)C(=O)NCC(=O)O)C(=O)O [Glutathione, glutathione] |  | inhibited the ligation reaction in a dose-dependent manner | Complete inhibition of ligation was observed |  |  | 1523 ± 10.1 | 1520
6 | O=C(O)c1ccn2ccnc2c1 [imidazo[1,2-a]pyridine-7-C, imidazo[1,2-a]pyridine-7-carboxylic acid] |  | do not inhibit EC-LigA |  |  | approximately 50% |  | 
7 | CN[C@@H]1[C@@H](O)[C@@H](O[C@@H]2[C@@H](O)[C@H](O[C@H]3O[C@H]([C@@H](C)O)[C@@H](O)[C@H](O)[C@H]3N)[C@@H](N)C[C@H]2N)OC[C@]1(C)O [Geneticin, geneticin, reference compound] | 2600 ± 85.4 | inhibited the ligation reaction in a dose-dependent manner | Complete inhibition of ligation was observed |  |  |  | 
8 | CC(C)C[C@H](NC(=O)[C@@H](O)[C@H](N)Cc1ccccc1)C(=O)O [bestatin, reference compound] |  | do not inhibit EC-LigA |  |  | approximately 50% |  | 
